# Reference: ChEMBL document CHEMBL3421536, “Identification of 4-(4-nitro-2-phenethoxyphenyl)pyridine as a promising new lead for discovering inhibitors of both human and rat 11β-Hydroxylase” (Eur J Med Chem, 2015)
# Assays:
# [1] = Retention time of the compound by HPLC analysis; type: physicochemical
# [2] = target: T1, Cytochrome P450 11B2, mitochondrial (Homo sapiens, UniProt P19099); experiment: Inhibition of human CYP11B2 expressed in hamster fibroblast using 100 nM [3H]-11-deoxycorticosterone as substrate after 45 mins by HPLC analysis
# T1 sequence (P19099 whole entry): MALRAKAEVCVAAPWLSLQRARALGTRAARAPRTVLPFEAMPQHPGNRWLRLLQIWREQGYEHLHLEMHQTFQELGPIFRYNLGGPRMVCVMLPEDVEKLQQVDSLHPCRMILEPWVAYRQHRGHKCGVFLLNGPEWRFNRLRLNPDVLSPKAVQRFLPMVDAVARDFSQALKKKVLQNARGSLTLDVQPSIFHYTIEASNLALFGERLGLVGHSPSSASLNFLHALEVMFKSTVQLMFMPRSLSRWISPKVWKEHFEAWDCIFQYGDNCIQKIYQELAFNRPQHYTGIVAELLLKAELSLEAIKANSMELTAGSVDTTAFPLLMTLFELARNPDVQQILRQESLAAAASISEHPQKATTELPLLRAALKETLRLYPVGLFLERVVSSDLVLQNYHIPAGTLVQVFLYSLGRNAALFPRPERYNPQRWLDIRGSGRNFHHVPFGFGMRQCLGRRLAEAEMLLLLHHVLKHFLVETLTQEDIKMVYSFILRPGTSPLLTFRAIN
# Homo sapiens = organism: Homo sapiens; experiment: Selectivity index, ratio of IC50 for human CYP11B2 to IC50 for human CYP11B1
# [3] = target: T2, Cytochrome P450 11B1, mitochondrial (Homo sapiens, UniProt P15538); experiment: Inhibition of human CYP11B1 expressed in hamster fibroblast using 100 nM [3H]-11-deoxycorticosterone as substrate after 25 mins by HPLC analysis
# T2 sequence (P15538 whole entry): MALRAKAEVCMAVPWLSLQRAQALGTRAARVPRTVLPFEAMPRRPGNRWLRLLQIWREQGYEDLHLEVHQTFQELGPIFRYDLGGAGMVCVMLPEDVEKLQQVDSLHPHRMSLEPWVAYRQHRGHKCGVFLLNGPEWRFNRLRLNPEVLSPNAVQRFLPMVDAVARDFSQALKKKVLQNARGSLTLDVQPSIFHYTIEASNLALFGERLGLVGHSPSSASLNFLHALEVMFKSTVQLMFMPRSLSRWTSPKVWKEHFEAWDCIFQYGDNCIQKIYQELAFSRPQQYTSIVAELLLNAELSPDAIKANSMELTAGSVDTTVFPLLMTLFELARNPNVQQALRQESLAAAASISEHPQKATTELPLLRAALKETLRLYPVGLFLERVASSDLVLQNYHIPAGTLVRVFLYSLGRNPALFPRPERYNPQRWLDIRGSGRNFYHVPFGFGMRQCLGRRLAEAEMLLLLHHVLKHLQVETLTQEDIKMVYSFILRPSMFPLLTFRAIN
# Aromatase = target: T3, Aromatase (Homo sapiens, UniProt P11511); experiment: Inhibition of human CYP19 expressed in hamster fibroblast using 500 nM [1beta-3H] androstenedione as substrate by HPLC analysis
# T3 sequence (P11511 whole entry): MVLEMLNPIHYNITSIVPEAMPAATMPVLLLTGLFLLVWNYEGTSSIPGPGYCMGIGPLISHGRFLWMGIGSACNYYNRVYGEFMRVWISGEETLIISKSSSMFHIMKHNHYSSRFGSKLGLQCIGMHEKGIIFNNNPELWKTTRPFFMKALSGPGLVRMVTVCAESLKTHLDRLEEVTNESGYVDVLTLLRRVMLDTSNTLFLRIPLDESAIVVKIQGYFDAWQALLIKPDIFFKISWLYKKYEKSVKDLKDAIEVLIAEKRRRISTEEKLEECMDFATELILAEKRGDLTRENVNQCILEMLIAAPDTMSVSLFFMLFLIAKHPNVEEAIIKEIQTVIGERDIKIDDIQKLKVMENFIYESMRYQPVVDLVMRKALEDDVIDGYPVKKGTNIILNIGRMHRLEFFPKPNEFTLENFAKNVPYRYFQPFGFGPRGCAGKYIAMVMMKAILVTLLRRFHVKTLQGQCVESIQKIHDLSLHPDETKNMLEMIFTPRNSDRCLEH
# [4] = target: T4, Cytochrome P450 11B1, mitochondrial (Rattus norvegicus, UniProt P15393); experiment: Inhibition of rat CYP11B1 expressed in hamster fibroblast using 500 nM [3H]-11-deoxycorticosterone as substrate after 7 hrs by HPLC analysis
# T4 sequence (P15393 whole entry): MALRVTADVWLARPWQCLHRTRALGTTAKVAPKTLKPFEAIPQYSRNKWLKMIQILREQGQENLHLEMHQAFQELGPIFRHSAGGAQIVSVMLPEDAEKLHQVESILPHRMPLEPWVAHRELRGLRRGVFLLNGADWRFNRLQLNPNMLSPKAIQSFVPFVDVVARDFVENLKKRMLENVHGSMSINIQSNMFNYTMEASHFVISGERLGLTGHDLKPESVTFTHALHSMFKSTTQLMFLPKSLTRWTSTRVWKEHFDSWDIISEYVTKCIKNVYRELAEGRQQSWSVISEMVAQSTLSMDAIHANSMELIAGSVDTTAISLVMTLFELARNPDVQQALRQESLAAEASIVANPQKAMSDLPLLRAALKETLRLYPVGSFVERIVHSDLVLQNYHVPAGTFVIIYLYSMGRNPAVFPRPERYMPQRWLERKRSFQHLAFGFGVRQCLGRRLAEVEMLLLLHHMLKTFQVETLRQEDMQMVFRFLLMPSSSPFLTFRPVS
Retention_time [1],IC50 [2],Selectivity Index (Homo sapiens),IC50 [3],IC50 (Aromatase),IC50 [4],SMILES
9.07 min,0.23 µM,1.3,0.183 µM,,,COc1ccc(-c2cccnc2)c(OCCc2ccccc2)c1
5.63 min,0.26 µM,0.5,0.54 µM,0.447 µM,,Nc1ccc(-c2cccnc2)c(OCc2ccccc2)c1
,,15.1,,> 5 µM,,Cc1cncc(Cc2ccc(-c3ccccc3)nc2)c1
,,,,> 5 µM,4.61 µM,CC(C)(C(=O)c1cccnc1)c1cccnc1 [METYRAPONE]
9.13 min,0.053 µM,4.1,0.013 µM,0.075 µM,1.31 µM,O=[N+]([O-])c1ccc(-c2cccnc2)c(OCCc2ccccc2)c1
9.07 min,0.017 µM,0.7,0.023 µM,0.146 µM,1.49 µM,O=[N+]([O-])c1ccc(-c2cccnc2)c(OCc2ccccc2)c1
7.25 min,0.643 µM,2.3,0.279 µM,,,CC(=O)Nc1ccc(-c2cccnc2)c(OCc2ccccc2)c1
7.56 min,0.299 µM,0.5,0.594 µM,,,CN(C)C(=O)c1ccc(-c2cccnc2)c(OCCc2ccccc2)c1
9.28 min,0.015 µM,2.5,0.006 µM,0.137 µM,2.08 µM,O=[N+]([O-])c1ccc(-c2cccnc2)c(OCCCc2ccccc2)c1
8.71 min,0.023 µM,1.9,0.012 µM,1.55 µM,0.441 µM,N#Cc1ccc(-c2ccncc2)c(OCCc2ccccc2)c1
9.57 min,0.084 µM,1.6,0.051 µM,,,Fc1ccc(-c2cccnc2)c(OCCc2ccccc2)c1
8.85 min,0.063 µM,1.6,0.038 µM,0.165 µM,0.543 µM,N#Cc1ccc(-c2cccnc2)c(OCCc2ccccc2)c1
9.32 min,0.074 µM,1.2,0.06 µM,,,Fc1ccc(-c2ccncc2)c(OCCc2ccccc2)c1
7.73 min,1.45 µM,0.9,1.66 µM,,,c1ccc(CCOc2cccnc2-c2cccnc2)cc1
10.13 min,0.024 µM,0.9,0.026 µM,2.09 µM,,FC(F)(F)c1ccc(-c2ccncc2)c(OCCc2ccccc2)c1
9.2 min,0.07 µM,1.5,0.046 µM,,,COc1ccc(-c2ccncc2)c(OCCc2ccccc2)c1
9.55 min,0.016 µM,2.7,0.006 µM,0.157 µM,2.85 µM,O=[N+]([O-])c1ccc(Cc2ccncc2)c(OCCc2ccccc2)c1
,,13.3,,> 5 µM,> 10 µM,c1ccc(-c2ccc(Cn3ccnc3)cn2)cc1
,,0.5,,,1.5 µM,O=C1CCc2cc(-c3cccnc3)c(OCc3ccccc3)cc2N1
7.91 min,2.44 µM,0.9,2.67 µM,,,c1ccc(CCOc2cccnc2-c2ccncc2)cc1
9.33 min,0.018 µM,2.4,0.008 µM,4.99 µM,0.37 µM,O=[N+]([O-])c1ccc(-c2ccncc2)c(OCCCc2ccccc2)c1
,,0.1,2.49 µM,,,COc1cc2c(cc1-c1cccnc1)CCC(=O)N2
9.57 min,0.714 µM,0.6,1.2 µM,,,O=[N+]([O-])c1ccc(-c2ccncc2)cc1OCCc1ccccc1
9.8 min,0.447 µM,0.9,0.508 µM,,,O=[N+]([O-])c1ccc(-c2cccnc2)cc1OCCc1ccccc1
9.7 min,0.246 µM,1.3,0.182 µM,0.128 µM,0.706 µM,O=[N+]([O-])c1ccc(Cc2cccnc2)c(OCCc2ccccc2)c1
7.51 min,0.816 µM,0.7,1.15 µM,,,CN(C)C(=O)c1ccc(-c2ccncc2)c(OCCc2ccccc2)c1
9.02 min,0.087 µM,1.7,0.05 µM,2.42 µM,0.648 µM,O=[N+]([O-])c1ccc(-c2ccncc2)c(OCc2ccccc2)c1
9.21 min,0.007 µM,3.5,0.002 µM,1.89 µM,0.163 µM,O=[N+]([O-])c1ccc(-c2ccncc2)c(OCCc2ccccc2)c1
10.3 min,0.945 µM,1.2,0.812 µM,,,FC(F)(F)c1ccc(-c2cccnc2)c(OCCc2ccccc2)c1
8.67 min,0.756 µM,0.6,1.21 µM,,,O=C(Nc1ccc(-c2cccnc2)c(OCc2ccccc2)c1)c1ccc(F)cc1
